This is an account of results in article PMC4710522, “A Novel Triazolopyridine-Based Spleen Tyrosine Kinase Inhibitor That Arrests Joint Inflammation” (PLoS ONE, 2016).

For series [1], the target named is T1, CK2-alpha2_h (Homo sapiens, UniProt P19784).
T1 construct: purchased Life Technologies (Invitrogen) SelectScreen, Z'-LYTE / Adapta
Nature of the series: SelectScreen kinase assay. The class given is biochemical. The settings on record: KM ATP, read-out: % control.

For series [2], the target named is T2, Tel-Syk fusion protein in HEK293 cells (Homo sapiens, UniProt P41212+P43405).
T2 construct: human Syk (NM_003177.5) kinase domain corresponding to amino acids 341–612; myristoylation motif (N); expressed in transfected cells
Kind of series: Tel-Syk biomarker assay (in-cell western, Syk Y525/526 phosphorylation). The class given is cell-based.
Description: HEK293 T-REx™ (Life Technologies, Grand Island, NY) stably transfected with human TEL-Syk (cloned as described prior section DNA constructs) were plated on black poly-D-lysine coated 96-well plates (BD Biosciences, San Diego, CA) in culture media containing tetracycline-free fetal bovine serum (Clontech, MountainView, CA) for 16 hours in a tissue culture incubator. Tel-Syk expression was induced for 6 hours in fresh growth media containing 1 μg/ml tetracycline (Sigma Chemicals, St. Louis, MO). […] Plates were blocked with Odyssey Blocking Buffer for 90 minutes at room temperature and incubated overnight at 4°C on a rotating platform with rabbit phospho-Syk (1:1000) and mouse V5 (1:2500) primary antibodies diluted in Odyssey Blocking Buffer. The plates were washed 5 times with 1X PBS + 0.1% Tween-20, incubated for 1 hour at room temperature with anti-rabbit IR680 (1:1000) and anti-mouse IR800CW (1:1000) secondary antibodies diluted in Odyssey Blocking Buffer, and washed 5 additional times with 1X PBS + 0.1% Tween-20 at room temperature. The plates were scanned on the Li-Cor Odyssey instrument (Li-Cor Biosciences, Lincoln, NE) in the 700 and 800 channels.

The target of series [3] is T3, PKC-iota_h (Homo sapiens, UniProt P41743).
T3 construct: purchased Life Technologies (Invitrogen) SelectScreen, Z'-LYTE / Adapta
Nature of the series: SelectScreen kinase assay. The class given is biochemical. The settings on record: KM ATP, read-out: % control.

The test system of series [4] is proinflammatory analytes in paw tissue. Nature of the series: inflammatory cytokines measured in the paw, rat CIA. The class given is in vivo. How it is done:
Following the last administration of CC-509, paw samples were collected and processed for cytokine and chemokine analysis (Aushon Biosciences, Billerica, MA). Briefly paws were snap-frozen and pulverized in liquid nitrogen followed by addition of cell signal lysis buffer in the presence of protease and phosphatase inhibitors (Sigma Chemicals, St. Louis, MO). Samples were homogenized on high speed for 30 seconds, incubated on ice for 20 minutes then sonicated at high intensity for 1 minute. Samples were spun at high speed and supernatants were collected for cytokine analysis.

Series [5] has as its target T4, JAK2 (Homo sapiens, UniProt O60674).
T4 construct: purchased Millipore 14-511
Nature of the series: JAK2 HTRF assay. The class given is biochemical. How it is done:
CC-509 was prepared at a concentration of 1.5 mM in DMSO followed by 3-fold dilutions in Greiner […] polypropylene plates. A 1:4 dilution of compounds by 8 μL/well transfer from the polypropylene plates to 24 μL/well Assay Buffer (50 mM HEPES pH 7.6, 1 mM DTT, 10 mM MgCl2, 0.01% Triton X100, 0.01% BSA and 0.1 mM EDTA) in Costar 3573 384 well black plates was then performed. Kinase (13 μL/well of 4.6 ng/mL JAK2, Millipore 14–511) or Assay Buffer only (background controls) were added to Costar 3573 384-well black plates and compound (2 μL/well) was added from the 1:4 dilution plate. […] Time resolved fluorescence was read in assay plates on a PerkinElmer EnVision. […]
For the TEL-Syk assay, the intensity values for the 700 and 800 channel were exported as text files in ActivityBase (IDBS, Guildford, UK) to derive the ratios that reflect kinase activity. […] For the JAK2 HEL and Ramos NFAT β-lactamase assays, the fluorescence values obtained at 460 nm and 530 nm were exported into ActivityBase to calculate response ratios. […] Evans blue dye extravasation was expressed as mean ± SEM and % inhibition for the test article groups was normalized to the cromolyn positive control. […] The mean data from each group was plotted and either the AUC(day 11–18) or % inhibition on day 18 was calculated. Data is expressed as mean ± SEM of each group with n = 6–12. […]

In series [6] the target is T5, KDR (Homo sapiens, UniProt P35968).
T5 construct: purchased Life Technologies PV3660
Nature of the series: KDR HTRF assay. Format: biochemical. The settings on record: in-house, mean ± SD. How it is done:
CC-509 was prepared at a concentration of 1.5 mM in DMSO followed by 3-fold dilutions in Greiner […] polypropylene plates. A 1:4 dilution of compounds by 8 μL/well transfer from the polypropylene plates to 24 μL/well Assay Buffer (50 mM HEPES pH 7.6, 1 mM DTT, 10 mM MgCl2, 0.01% Triton X-100, 0.01% BSA and 0.1 mM EDTA) in Costar 3573 384 well black plates was then performed. Kinase (13 μL/well of 7.7 ng/ml KDR (Life Technologies, Grand Island, NY PV3660) in Assay Buffer) or Assay Buffer only (background controls) were added to Costar 3573 384-well black plates and compound (2 μL/ well) was added from the 1:4 dilution plate. […] Time resolved fluorescence was read in assay plates on a PerkinElmer EnVision. […] The IC50 value was determined as described in the data fitting section below.
For the TEL-Syk assay, the intensity values for the 700 and 800 channel were exported as text files in ActivityBase (IDBS, Guildford, UK) to derive the ratios that reflect kinase activity. […] For the JAK2 HEL and Ramos NFAT β-lactamase assays, the fluorescence values obtained at 460 nm and 530 nm were exported into ActivityBase to calculate response ratios. […] Evans blue dye extravasation was expressed as mean ± SEM and % inhibition for the test article groups was normalized to the cromolyn positive control. […] Data is expressed as mean ± SEM of each group with n = 6–12. […]

The target in series [7] is T6, MSK2_h (Homo sapiens, UniProt O75676).
T6 construct: purchased Life Technologies (Invitrogen) SelectScreen, Z'-LYTE / Adapta
Nature of the series: SelectScreen kinase assay. The class given is biochemical. The settings on record: KM ATP, read-out: % control.

For series [8] the following is noted: rat CIA, cited from earlier work.

Where two headings read alike, the source gives them in different places.

T4 sequence (O60674 whole entry): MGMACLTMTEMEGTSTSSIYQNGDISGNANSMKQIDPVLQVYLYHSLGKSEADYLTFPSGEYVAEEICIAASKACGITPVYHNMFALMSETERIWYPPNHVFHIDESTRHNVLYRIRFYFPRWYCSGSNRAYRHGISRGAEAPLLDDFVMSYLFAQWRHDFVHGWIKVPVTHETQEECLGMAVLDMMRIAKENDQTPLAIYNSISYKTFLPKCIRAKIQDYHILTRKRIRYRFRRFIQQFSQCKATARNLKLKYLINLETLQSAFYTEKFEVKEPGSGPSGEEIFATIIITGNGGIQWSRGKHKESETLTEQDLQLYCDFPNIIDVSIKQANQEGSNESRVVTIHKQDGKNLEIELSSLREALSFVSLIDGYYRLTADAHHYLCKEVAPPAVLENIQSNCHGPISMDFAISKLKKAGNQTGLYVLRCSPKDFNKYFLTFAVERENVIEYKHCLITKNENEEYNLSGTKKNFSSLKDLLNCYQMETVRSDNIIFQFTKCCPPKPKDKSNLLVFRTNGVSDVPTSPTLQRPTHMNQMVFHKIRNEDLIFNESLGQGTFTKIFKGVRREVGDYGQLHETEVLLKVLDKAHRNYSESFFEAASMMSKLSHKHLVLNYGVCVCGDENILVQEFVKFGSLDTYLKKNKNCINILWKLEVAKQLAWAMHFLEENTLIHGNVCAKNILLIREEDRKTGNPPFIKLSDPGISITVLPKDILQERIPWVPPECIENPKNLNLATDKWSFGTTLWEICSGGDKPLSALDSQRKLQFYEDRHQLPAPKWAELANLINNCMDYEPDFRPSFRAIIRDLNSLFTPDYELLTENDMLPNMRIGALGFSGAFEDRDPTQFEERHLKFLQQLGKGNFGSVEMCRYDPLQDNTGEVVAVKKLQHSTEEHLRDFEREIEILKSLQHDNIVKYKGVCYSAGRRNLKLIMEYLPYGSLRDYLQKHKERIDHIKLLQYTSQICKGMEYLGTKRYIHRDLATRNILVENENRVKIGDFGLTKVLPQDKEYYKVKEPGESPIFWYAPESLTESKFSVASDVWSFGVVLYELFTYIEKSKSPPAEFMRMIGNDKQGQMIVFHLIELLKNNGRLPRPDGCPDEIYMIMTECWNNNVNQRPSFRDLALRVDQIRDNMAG
T1 sequence (P19784 whole entry): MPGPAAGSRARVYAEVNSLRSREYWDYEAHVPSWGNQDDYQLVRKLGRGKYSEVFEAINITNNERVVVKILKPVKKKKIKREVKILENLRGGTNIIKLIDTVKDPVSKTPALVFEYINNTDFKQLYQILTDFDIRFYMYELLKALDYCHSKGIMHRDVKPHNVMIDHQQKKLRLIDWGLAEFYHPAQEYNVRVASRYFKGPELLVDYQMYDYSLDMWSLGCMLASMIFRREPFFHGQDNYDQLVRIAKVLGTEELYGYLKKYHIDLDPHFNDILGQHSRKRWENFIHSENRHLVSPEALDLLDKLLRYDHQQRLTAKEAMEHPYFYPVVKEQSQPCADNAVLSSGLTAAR
T6 sequence (O75676 whole entry): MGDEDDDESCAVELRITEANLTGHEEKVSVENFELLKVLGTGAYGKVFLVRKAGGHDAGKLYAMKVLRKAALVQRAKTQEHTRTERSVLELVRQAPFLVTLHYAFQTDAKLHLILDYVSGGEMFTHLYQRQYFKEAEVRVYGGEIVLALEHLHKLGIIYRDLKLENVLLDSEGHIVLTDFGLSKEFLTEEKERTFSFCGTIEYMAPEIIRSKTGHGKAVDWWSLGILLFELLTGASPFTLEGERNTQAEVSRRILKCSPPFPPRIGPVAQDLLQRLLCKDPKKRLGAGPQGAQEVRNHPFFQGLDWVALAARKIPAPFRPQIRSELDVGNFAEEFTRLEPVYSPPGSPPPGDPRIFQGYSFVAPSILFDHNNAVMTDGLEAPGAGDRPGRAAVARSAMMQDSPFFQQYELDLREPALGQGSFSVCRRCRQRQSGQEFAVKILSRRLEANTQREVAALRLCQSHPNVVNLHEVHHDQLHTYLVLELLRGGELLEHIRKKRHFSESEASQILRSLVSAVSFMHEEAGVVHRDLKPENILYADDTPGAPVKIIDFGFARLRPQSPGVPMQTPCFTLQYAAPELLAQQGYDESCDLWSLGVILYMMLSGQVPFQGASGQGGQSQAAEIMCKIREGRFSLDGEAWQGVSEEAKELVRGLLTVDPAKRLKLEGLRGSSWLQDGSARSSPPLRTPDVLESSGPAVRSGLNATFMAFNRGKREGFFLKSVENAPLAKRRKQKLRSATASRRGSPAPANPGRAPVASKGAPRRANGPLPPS
T3 sequence (P41743 whole entry): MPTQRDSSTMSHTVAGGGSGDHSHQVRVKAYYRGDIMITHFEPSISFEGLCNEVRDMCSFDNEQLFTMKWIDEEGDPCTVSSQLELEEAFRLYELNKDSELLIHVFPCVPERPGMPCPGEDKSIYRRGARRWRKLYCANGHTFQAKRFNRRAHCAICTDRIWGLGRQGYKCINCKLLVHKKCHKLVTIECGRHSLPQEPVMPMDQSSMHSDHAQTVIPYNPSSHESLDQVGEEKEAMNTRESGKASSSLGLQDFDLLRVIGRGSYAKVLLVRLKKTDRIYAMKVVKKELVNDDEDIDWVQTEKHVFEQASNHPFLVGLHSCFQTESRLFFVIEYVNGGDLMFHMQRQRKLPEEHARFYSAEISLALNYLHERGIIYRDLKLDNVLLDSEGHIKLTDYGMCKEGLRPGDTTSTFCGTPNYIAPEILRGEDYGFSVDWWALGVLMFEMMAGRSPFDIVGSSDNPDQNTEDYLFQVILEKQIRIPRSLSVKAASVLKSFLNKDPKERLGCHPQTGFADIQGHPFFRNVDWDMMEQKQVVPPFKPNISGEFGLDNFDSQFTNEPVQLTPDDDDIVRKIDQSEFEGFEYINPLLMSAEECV
T2 sequence (P41212+P43405 fused): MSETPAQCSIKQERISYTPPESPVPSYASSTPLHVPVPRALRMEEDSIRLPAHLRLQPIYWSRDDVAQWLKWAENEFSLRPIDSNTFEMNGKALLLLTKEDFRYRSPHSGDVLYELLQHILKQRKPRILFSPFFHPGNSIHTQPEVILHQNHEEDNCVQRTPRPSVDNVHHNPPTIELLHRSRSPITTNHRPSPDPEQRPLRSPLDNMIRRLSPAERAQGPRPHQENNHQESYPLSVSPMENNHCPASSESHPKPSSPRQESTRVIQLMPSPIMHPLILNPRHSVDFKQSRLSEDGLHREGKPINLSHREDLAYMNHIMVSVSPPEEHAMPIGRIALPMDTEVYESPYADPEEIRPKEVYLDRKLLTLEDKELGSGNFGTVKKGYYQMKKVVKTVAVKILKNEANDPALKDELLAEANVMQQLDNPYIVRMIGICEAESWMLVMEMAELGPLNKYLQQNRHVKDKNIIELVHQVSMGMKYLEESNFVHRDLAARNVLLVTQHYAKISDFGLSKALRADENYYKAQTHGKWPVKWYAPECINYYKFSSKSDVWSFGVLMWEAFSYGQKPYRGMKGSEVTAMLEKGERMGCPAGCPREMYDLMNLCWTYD
T5 sequence (P35968 20-1356): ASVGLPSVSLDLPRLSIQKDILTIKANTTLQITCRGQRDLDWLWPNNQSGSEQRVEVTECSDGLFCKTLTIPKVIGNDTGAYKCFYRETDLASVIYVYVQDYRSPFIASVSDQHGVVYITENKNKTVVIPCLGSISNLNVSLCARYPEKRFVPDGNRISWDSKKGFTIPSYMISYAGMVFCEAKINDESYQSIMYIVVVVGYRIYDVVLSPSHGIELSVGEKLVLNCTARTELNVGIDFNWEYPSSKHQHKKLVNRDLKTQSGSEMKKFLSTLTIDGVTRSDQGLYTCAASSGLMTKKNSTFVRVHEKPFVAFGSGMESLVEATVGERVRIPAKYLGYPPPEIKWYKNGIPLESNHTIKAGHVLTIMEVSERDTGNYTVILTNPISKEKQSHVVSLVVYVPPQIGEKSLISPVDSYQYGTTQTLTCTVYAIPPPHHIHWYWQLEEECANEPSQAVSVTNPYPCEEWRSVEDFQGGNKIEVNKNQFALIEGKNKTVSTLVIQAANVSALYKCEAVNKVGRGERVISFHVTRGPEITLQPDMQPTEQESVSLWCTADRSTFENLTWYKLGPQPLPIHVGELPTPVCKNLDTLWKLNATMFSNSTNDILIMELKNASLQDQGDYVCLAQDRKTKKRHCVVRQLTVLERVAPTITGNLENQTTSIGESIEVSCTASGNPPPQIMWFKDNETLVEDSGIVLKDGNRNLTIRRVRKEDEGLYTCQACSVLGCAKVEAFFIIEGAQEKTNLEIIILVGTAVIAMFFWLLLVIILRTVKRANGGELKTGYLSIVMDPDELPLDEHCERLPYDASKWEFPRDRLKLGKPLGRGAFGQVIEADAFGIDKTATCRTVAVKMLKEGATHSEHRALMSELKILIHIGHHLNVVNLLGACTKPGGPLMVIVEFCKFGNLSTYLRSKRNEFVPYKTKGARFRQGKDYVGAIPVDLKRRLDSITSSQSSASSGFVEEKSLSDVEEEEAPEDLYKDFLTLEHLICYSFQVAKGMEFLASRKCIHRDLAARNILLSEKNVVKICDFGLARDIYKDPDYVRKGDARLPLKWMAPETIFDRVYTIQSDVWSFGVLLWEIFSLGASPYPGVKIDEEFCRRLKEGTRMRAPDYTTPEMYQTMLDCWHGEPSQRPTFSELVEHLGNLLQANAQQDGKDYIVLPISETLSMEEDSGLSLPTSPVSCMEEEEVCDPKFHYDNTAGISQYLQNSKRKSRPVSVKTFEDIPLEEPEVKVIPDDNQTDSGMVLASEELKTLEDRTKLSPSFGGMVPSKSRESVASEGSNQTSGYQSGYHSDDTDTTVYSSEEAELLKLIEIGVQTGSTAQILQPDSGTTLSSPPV

On to `c1cc(CC2CCOCC2)n2nc(Nc3ccc4c(NC5CCOCC5)n[nH]c4c3)nc2c1` [CC-509, [3-(2H-3,4,5,6-tetrahydropyran-4-ylamino)(1H-indazol-6-yl)][5-(2H-3,4,5,6-tetrahydropyran-4-ylmethyl)(2H-1,2,4-triazolo[1,5-a]pyridin-2-yl)]amine], for which the remaining activity at 3 µM stood at 97% in series [1], 88% in series [3] and 81% in series [7]. Besides, the IC50 came out at 0.61 ± 0.19 µM in series [2]; 0.019 ± 0.002 µM in series [5] (in-house, mean ± SD); 0.15 ± 0.03 µM in series [6]. The “other proinflammatory analytes in the paw (IL-1β, IL-6, CRP)” value in series [4] (day 18) is “No other significant effects”. In addition, the “MCP-1 in the paw” value in series [4] (day 18, 15 mg/kg q.d. and b.i.d. groups, p<0.01) is “significantly reduced”. In series [4] (day 18, all CC-509 dose levels, p<0.001), the “RANTES in the paw” value was “significantly reduced”. Also, the “KC in the paw” value in series [4] (day 18, only in the 15 mg/kg b.i.d. group, p<0.05) was “reduced”. In addition, the “MIP-1α in the paw” value in series [4] (day 18, CC-509 all dose levels p<0.01, indomethacin p<0.05) is reported as “significantly reduced”. For the same compound, the “fold less potent than R406, Jak2 enzyme” value in series [5] (data not shown) is recorded as 22 fold.

As to `COc1cc(Nc2ncc(F)c(Nc3ccc4c(n3)NC(=O)C(C)(C)O4)n2)cc(OC)c1OC` [R406, reference compound], the “exposure following a single dose” value in series [8] (10 mg/kg b.i.d.) is 15 µM·h; in series [8] (30 mg/kg b.i.d.) it was 38 µM·h.

One may read the IC50 as the concentration at which inhibition is half-maximal. Read a high IC50 as weaker potency.
